Columns and labels:
[1] = test system: Tyrosine-protein kinase ABL1 (Homo sapiens), P00519 [T315I]; settings: Compound concentration 1000.0 nM
[2] = biological target: RAC-alpha serine/threonine-protein kinase (Homo sapiens) (UniProt P31749); settings: Compound concentration 1000.0 nM
[3] = biological target: ALK tyrosine kinase receptor (Homo sapiens) (UniProt Q9UM73); settings: Compound concentration 1000.0 nM
[4] = biological target: Ankyrin repeat and protein kinase domain-containing protein 1 (Homo sapiens) (UniProt Q8NFD2); settings: Compound concentration 1000.0 nM
[5] = biological target: Aurora kinase A (Homo sapiens) (UniProt O14965); settings: Compound concentration 1000.0 nM
[6] = biological target: BMP-2-inducible protein kinase (Homo sapiens) (UniProt Q9NSY1); settings: Compound concentration 1000.0 nM
[7] = biological target: Tyrosine-protein kinase Blk (Homo sapiens) (UniProt P51451); settings: Compound concentration 1000.0 nM
[8] = biological target: Calcium/calmodulin-dependent protein kinase type IV (Homo sapiens) (UniProt Q16566); settings: Compound concentration 1000.0 nM
[9] = biological target: Cyclin-dependent kinase 19 (Homo sapiens) (UniProt Q9BWU1); settings: Compound concentration 1000.0 nM
[10] = biological target: Dual specificity protein kinase CLK2 (Homo sapiens) (UniProt P49760); settings: Compound concentration 1000.0 nM
[11] = biological target: Casein kinase I isoform gamma-1 (Homo sapiens) (UniProt Q9HCP0); settings: Compound concentration 1000.0 nM
[12] = biological target: Death-associated protein kinase 1 (Homo sapiens) (UniProt P53355); settings: Compound concentration 1000.0 nM
[13] = biological target: Serine/threonine-protein kinase DCLK2 (Homo sapiens) (UniProt Q8N568); settings: Compound concentration 1000.0 nM
[14] = biological target: Ephrin type-A receptor 5 (Homo sapiens) (UniProt P54756); settings: Compound concentration 1000.0 nM
[15] = biological target: Serine/threonine-protein kinase/endoribonuclease IRE1 (Homo sapiens) (UniProt O75460); settings: Compound concentration 1000.0 nM
[16] = biological target: Mitogen-activated protein kinase kinase kinase kinase 1 (Homo sapiens) (UniProt Q92918); settings: Compound concentration 1000.0 nM
[17] = biological target: Insulin receptor (Homo sapiens) (UniProt P06213); settings: Compound concentration 1000.0 nM
[18] = biological target: Interleukin-1 receptor-associated kinase 4 (Homo sapiens) (UniProt Q9NWZ3); settings: Compound concentration 1000.0 nM
[19] = test system: Mast/stem cell growth factor receptor Kit (Homo sapiens), P10721 [D816V]; settings: Compound concentration 1000.0 nM
[20] = biological target: Tyrosine-protein kinase Lck (Homo sapiens) (UniProt P06239); settings: Compound concentration 1000.0 nM
[21] = biological target: LIM domain kinase 2 (Homo sapiens) (UniProt P53671); settings: Compound concentration 1000.0 nM
[22] = biological target: Mitogen-activated protein kinase kinase kinase 3 (Homo sapiens) (UniProt Q99759); settings: Compound concentration 1000.0 nM
[23] = biological target: Mitogen-activated protein kinase kinase kinase kinase 5 (Homo sapiens) (UniProt Q9Y4K4); settings: Compound concentration 1000.0 nM
[24] = biological target: Dual specificity mitogen-activated protein kinase kinase 5 (Homo sapiens) (UniProt Q13163); settings: Compound concentration 1000.0 nM
[25] = test system: Hepatocyte growth factor receptor (Homo sapiens), P08581 [Y1235D]; settings: Compound concentration 1000.0 nM
[26] = biological target: Misshapen-like kinase 1 (Homo sapiens) (UniProt Q8N4C8); settings: Compound concentration 1000.0 nM
[27] = biological target: Mitogen-activated protein kinase kinase kinase 10 (Homo sapiens) (UniProt Q02779); settings: Compound concentration 1000.0 nM
[28] = biological target: Myosin light chain kinase family member 4 (Homo sapiens) (UniProt Q86YV6); settings: Compound concentration 1000.0 nM
[29] = biological target: Myosin-IIIb (Homo sapiens) (UniProt Q8WXR4); settings: Compound concentration 1000.0 nM
[30] = biological target: Phosphatidylinositol 4-kinase beta (Homo sapiens) (UniProt Q9UBF8); settings: Compound concentration 1000.0 nM
[31] = biological target: Protein kinase C theta type (Homo sapiens) (UniProt Q04759); settings: Compound concentration 1000.0 nM
[32] = biological target: Serine/threonine-protein kinase D2 (Homo sapiens) (UniProt Q9BZL6); settings: Compound concentration 1000.0 nM
[33] = biological target: Receptor-interacting serine/threonine-protein kinase 1 (Homo sapiens) (UniProt Q13546); settings: Compound concentration 1000.0 nM
[34] = biological target: Dual serine/threonine and tyrosine protein kinase (Homo sapiens) (UniProt Q6XUX3); settings: Compound concentration 1000.0 nM
[35] = biological target: Ribosomal protein S6 kinase alpha-1 (Homo sapiens) (UniProt Q15418); settings: Compound concentration 1000.0 nM
[36] = biological target: Serine/threonine-protein kinase SIK1 (Homo sapiens) (UniProt P57059); settings: Compound concentration 1000.0 nM
[37] = biological target: Serine/threonine-protein kinase SIK2 (Homo sapiens) (UniProt Q9H0K1); settings: Compound concentration 1000.0 nM
[38] = biological target: STE20-like serine/threonine-protein kinase (Homo sapiens) (UniProt Q9H2G2); settings: Compound concentration 1000.0 nM
[39] = biological target: Tyrosine-protein kinase Srms (Homo sapiens) (UniProt Q9H3Y6); settings: Compound concentration 1000.0 nM
[40] = biological target: Serine/threonine-protein kinase 33 (Homo sapiens) (UniProt Q9BYT3); settings: Compound concentration 1000.0 nM
[41] = biological target: Mitogen-activated protein kinase kinase kinase 7 (Homo sapiens) (UniProt O43318); settings: Compound concentration 1000.0 nM
[42] = biological target: Dual specificity testis-specific protein kinase 1 (Homo sapiens) (UniProt Q15569); settings: Compound concentration 1000.0 nM
[43] = biological target: Serine/threonine-protein kinase tousled-like 1 (Homo sapiens) (UniProt Q9UKI8); settings: Compound concentration 1000.0 nM
[44] = biological target: Serine/threonine-protein kinase ULK2 (Homo sapiens) (UniProt Q8IYT8); settings: Compound concentration 1000.0 nM
[45] = biological target: Mitogen-activated protein kinase kinase kinase 20 (Homo sapiens) (UniProt Q9NYL2); settings: Compound concentration 1000.0 nM
[46] = biological target: 5-hydroxytryptamine receptor 2B (Homo sapiens) (UniProt P41595); settings: Compound concentration 10.0 uM

Chain of Serine/threonine-protein kinase/endoribonuclease IRE1 (Homo sapiens) (O75460 19-977 limits assumed): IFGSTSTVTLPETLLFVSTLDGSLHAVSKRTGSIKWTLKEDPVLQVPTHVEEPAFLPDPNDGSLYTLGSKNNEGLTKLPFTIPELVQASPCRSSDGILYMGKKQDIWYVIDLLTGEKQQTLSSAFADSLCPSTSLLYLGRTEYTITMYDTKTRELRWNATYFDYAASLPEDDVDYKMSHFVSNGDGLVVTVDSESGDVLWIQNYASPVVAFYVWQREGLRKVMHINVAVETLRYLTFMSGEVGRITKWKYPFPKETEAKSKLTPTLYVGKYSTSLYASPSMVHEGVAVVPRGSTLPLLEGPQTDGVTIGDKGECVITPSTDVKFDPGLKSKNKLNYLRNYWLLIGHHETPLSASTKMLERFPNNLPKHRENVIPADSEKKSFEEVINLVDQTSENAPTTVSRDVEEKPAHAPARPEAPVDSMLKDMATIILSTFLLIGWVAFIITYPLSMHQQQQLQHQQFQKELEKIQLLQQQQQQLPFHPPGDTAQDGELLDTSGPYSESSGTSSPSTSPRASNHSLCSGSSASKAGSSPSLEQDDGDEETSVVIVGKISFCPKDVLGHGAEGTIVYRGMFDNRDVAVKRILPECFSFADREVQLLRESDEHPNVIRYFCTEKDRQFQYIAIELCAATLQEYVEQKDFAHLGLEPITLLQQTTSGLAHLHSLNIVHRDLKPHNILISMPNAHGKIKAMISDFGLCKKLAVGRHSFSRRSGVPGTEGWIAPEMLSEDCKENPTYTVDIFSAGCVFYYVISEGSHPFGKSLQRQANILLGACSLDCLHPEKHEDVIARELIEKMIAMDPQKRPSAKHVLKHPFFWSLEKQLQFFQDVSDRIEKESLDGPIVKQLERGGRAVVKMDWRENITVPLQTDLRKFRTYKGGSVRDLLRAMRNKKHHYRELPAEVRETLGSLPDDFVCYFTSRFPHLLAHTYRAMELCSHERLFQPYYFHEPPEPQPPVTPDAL
Chain of Mitogen-activated protein kinase kinase kinase 10 (Homo sapiens) (Q02779 whole entry, looked up): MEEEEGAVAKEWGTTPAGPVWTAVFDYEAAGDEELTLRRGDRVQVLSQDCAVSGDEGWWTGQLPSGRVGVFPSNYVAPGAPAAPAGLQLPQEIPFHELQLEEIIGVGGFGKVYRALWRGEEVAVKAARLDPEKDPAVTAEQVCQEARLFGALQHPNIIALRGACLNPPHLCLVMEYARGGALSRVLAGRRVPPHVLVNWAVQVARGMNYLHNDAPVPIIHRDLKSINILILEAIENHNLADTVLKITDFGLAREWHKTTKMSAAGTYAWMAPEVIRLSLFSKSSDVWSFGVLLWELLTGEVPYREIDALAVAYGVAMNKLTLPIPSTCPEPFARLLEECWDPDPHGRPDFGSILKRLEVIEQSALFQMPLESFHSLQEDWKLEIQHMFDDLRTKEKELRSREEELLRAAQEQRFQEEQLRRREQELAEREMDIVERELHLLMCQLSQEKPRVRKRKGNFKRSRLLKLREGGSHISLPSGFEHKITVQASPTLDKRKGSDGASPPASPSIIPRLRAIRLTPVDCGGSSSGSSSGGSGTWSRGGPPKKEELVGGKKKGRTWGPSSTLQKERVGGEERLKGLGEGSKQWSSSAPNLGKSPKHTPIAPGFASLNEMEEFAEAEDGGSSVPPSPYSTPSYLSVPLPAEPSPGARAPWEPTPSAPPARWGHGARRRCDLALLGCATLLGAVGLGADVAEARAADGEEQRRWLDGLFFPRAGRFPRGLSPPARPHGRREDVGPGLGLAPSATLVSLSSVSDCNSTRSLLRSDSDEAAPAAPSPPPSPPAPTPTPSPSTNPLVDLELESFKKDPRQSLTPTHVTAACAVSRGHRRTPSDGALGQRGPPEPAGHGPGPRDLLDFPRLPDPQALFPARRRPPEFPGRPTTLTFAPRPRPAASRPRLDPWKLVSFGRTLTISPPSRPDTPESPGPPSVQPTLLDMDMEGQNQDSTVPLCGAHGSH
Chain of Mitogen-activated protein kinase kinase kinase 3 (Homo sapiens) (Q99759 whole entry): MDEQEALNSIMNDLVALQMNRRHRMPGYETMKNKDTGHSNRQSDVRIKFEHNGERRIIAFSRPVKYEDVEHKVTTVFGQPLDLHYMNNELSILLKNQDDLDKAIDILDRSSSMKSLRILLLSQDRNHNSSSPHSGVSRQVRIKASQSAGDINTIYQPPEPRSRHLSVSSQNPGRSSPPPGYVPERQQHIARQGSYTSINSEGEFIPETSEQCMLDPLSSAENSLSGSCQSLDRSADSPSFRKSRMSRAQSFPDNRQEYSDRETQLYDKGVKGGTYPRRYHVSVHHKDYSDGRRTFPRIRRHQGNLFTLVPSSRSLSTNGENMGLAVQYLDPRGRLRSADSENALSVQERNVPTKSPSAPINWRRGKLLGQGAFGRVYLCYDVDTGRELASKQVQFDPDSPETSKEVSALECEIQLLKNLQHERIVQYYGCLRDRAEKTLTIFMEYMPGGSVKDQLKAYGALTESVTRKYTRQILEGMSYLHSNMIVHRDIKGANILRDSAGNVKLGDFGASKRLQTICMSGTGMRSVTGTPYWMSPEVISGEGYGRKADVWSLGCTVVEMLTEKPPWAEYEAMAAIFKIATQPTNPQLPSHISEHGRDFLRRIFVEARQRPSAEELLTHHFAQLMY
Chain of Casein kinase I isoform gamma-1 (Homo sapiens) (Q9HCP0 whole entry, looked up, canonical isoform): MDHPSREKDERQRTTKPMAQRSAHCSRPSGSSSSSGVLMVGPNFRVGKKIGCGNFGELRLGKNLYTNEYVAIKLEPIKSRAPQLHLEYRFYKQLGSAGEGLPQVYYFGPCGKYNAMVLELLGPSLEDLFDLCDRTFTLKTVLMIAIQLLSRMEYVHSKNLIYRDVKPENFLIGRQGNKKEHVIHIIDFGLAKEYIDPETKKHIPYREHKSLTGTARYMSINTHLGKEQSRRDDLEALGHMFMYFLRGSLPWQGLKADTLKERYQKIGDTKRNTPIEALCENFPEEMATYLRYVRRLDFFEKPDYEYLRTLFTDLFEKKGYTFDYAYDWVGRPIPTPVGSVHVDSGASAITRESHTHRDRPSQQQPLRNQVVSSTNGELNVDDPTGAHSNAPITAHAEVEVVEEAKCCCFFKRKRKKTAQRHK
Chain of Serine/threonine-protein kinase DCLK2 (Homo sapiens) (Q8N568 whole entry): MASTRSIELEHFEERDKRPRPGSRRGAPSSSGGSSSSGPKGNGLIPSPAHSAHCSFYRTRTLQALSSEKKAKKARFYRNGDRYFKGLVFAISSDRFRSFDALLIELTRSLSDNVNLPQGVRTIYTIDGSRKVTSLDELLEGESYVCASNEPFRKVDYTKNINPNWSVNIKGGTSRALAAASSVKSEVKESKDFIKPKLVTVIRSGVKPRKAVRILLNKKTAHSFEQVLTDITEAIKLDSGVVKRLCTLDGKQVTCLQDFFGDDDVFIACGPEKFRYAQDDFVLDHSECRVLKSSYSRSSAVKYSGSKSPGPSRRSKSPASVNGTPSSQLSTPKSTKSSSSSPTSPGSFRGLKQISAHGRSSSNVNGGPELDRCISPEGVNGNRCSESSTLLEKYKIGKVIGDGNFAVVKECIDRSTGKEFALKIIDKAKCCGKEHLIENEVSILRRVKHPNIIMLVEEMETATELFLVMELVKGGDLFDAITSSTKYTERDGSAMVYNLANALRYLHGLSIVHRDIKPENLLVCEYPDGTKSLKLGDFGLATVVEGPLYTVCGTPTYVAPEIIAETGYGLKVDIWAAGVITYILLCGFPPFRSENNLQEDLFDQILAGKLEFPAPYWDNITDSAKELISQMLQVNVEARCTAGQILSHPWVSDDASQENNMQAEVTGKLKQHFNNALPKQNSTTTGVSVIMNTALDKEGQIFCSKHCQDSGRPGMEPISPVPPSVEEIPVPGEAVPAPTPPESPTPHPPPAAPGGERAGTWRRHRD
Chain of Protein kinase C theta type (Homo sapiens) (Q04759 whole entry, looked up): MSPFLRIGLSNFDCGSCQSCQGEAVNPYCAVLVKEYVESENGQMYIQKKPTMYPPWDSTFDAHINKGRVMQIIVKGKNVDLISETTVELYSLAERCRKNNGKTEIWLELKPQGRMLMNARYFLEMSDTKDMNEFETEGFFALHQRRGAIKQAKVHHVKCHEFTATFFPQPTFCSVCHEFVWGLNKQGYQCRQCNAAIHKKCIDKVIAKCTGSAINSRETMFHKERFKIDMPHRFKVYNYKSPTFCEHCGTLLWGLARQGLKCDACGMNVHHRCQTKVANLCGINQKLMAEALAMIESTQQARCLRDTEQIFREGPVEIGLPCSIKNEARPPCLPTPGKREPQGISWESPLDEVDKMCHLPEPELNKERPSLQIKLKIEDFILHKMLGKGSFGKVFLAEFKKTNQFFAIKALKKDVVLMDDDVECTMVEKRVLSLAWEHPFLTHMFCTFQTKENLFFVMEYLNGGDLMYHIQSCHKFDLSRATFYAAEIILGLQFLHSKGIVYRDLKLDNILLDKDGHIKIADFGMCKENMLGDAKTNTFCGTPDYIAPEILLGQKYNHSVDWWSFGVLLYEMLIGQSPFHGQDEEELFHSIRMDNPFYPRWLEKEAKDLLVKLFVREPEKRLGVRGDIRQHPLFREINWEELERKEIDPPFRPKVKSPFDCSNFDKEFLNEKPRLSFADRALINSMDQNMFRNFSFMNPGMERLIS
Chain of LIM domain kinase 2 (Homo sapiens) (P53671 whole entry, looked up, the tested form may be a part): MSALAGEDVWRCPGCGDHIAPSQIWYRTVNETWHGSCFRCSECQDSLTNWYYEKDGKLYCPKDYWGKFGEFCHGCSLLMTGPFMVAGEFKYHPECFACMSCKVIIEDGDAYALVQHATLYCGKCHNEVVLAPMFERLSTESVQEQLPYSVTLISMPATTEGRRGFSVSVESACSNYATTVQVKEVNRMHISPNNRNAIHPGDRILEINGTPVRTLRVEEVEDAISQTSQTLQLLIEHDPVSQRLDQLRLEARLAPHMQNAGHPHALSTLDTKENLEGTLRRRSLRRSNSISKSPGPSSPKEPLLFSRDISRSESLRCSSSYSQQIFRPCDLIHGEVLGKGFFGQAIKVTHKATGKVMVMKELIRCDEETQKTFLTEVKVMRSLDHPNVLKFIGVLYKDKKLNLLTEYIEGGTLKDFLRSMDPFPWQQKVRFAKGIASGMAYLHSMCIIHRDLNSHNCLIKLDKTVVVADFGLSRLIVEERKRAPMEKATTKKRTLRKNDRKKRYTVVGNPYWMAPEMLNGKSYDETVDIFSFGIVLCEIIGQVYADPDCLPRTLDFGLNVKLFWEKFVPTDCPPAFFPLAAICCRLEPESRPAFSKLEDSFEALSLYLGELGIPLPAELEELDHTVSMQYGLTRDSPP

C[C@H](c1ccc(F)cc1)N(Cc1cccc(C(=O)O)c1)C(=O)c1cnc2ccccc2c1 [PF-05105679]
inactive: residual activity [1] 75% | residual activity [2] 100% | residual activity [3] 94% | residual activity [4] 81% | residual activity [5] 100% | residual activity [6] 96% | residual activity [7] 88% | residual activity [8] 100% | residual activity [9] 100% | residual activity [10] 98% | residual activity [11] 91% | residual activity [12] 97% | residual activity [13] 100% | residual activity [14] 98% | residual activity [15] 78% | residual activity [16] 100% | residual activity [17] 100% | residual activity [18] 95% | residual activity [19] 100% | residual activity [20] 100% | residual activity [21] 100% | residual activity [22] 100% | residual activity [23] 100% | residual activity [24] 92% | residual activity [25] 100% | residual activity [26] 100% | residual activity [27] 100% | residual activity [28] 99% | residual activity [29] 100% | residual activity [30] 98% | residual activity [31] 100% | residual activity [32] 100% | residual activity [33] 100% | residual activity [34] 100% | residual activity [35] 100% | residual activity [36] 90% | residual activity [37] 96% | residual activity [38] 100% | residual activity [39] 100% | residual activity [40] 100% | residual activity [41] 100% | residual activity [42] 100% | residual activity [43] 97% | residual activity [44] 81% | residual activity [45] 100% | inhibition [46] 0.7%
